Experimental data taken from paper PMC5983617, “Hypouricemic Effect of 2,5-Dihydroxyacetophenone, a Computational Screened Bioactive Compound from Ganoderma applanatum, on Hyperuricemic Mice” (International Journal of Molecular Sciences, 2018).

Biological target: T1, XOD (xanthine oxidase) (Bos taurus, UniProt P80457)
T1 construct: gene XDH; oxidase form
Assay: xanthine oxidation, absorbance at […] nm, microplate reader
Type: biochemical

T1 sequence (P80457 2-1332): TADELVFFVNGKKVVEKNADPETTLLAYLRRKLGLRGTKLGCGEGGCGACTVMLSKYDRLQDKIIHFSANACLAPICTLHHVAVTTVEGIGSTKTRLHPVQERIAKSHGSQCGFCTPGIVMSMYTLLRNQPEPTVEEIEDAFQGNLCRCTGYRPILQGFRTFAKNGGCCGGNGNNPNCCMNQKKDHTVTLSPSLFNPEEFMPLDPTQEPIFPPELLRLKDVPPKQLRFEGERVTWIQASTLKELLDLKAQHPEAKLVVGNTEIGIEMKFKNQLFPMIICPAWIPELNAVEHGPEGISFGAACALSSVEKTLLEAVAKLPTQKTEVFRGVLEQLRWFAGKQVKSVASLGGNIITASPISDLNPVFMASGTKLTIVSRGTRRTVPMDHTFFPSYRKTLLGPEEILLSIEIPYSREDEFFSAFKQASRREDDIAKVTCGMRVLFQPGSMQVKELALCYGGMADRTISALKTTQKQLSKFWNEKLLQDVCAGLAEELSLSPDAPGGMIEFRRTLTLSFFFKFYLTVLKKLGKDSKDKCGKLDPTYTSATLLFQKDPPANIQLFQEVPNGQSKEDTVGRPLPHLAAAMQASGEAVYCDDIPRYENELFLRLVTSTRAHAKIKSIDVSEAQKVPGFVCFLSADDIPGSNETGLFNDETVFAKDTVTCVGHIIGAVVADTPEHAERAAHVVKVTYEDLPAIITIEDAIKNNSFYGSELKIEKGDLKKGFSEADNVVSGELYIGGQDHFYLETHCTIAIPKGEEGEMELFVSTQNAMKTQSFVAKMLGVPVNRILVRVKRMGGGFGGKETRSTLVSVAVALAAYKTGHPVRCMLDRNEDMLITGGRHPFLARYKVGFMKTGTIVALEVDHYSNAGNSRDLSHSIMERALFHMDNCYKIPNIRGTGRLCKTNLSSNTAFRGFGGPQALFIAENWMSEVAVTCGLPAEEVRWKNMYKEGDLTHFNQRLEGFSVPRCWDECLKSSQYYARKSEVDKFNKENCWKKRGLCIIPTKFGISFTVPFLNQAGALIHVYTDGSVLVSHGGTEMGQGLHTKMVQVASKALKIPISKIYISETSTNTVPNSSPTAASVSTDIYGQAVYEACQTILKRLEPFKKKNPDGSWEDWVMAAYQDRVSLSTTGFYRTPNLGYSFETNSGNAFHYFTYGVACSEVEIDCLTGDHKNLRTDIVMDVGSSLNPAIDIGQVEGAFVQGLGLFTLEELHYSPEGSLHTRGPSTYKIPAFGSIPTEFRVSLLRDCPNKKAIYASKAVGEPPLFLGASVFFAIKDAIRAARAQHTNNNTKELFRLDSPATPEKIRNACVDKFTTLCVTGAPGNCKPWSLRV

IC50: 8.12 ± 0.27 µM
Structure (SMILES): CC(=O)c1cc(O)ccc1O [DHAP]
